Reference: patent US20230233674A1 (priority 2022, published 2023)

Test system: Influenza A/Hong Kong/2369/2009 (H1N1)
Settings: mouse, in vivo

For `CCOC(=O)C1=C[C@@H](OC(CC)CC)[C@H](NC(C)=O)[C@@H](N)C1` [Oseltamivir], the “mean peak weight loss” value was −32%, the “mice that succumbed to the disease” value was 90% and the treatment effect was “no significant effect”.
